ChEMBL document CHEMBL2007661, “Compounds: GSK PKIS; Assays: UNC Frye lab” (2012)
“And” between values parts separate entries of the source, which are not always exact repeats. Identical values can stand only once.

Columns and labels:
[1] = molecular target: T1, Serine/threonine-protein kinase TBK1 (Homo sapiens) (UniProt Q9UHD2); conditions: at 1 µM
T1 sequence (whole entry): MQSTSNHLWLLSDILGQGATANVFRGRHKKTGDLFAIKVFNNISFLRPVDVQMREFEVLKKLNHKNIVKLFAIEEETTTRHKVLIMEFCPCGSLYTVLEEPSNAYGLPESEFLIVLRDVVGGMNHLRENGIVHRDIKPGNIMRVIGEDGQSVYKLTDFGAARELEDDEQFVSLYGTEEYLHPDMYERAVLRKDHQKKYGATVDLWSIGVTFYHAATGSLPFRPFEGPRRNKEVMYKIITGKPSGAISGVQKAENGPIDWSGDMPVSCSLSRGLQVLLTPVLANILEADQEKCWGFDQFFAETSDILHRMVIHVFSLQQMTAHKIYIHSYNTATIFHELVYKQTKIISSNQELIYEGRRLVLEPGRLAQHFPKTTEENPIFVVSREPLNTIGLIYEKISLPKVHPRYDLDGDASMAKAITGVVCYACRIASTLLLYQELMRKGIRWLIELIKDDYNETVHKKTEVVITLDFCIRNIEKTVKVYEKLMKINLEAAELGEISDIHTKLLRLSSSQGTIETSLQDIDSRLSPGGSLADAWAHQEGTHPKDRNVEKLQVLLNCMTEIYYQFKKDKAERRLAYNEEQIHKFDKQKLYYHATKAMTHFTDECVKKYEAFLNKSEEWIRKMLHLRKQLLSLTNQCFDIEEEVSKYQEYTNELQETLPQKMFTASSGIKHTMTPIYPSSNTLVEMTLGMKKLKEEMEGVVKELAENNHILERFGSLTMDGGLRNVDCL

[2] = molecular target: T2, Inhibitor of nuclear factor kappa-B kinase subunit epsilon (Homo sapiens) (UniProt Q14164); conditions: at 1 µM
T2 sequence (whole entry): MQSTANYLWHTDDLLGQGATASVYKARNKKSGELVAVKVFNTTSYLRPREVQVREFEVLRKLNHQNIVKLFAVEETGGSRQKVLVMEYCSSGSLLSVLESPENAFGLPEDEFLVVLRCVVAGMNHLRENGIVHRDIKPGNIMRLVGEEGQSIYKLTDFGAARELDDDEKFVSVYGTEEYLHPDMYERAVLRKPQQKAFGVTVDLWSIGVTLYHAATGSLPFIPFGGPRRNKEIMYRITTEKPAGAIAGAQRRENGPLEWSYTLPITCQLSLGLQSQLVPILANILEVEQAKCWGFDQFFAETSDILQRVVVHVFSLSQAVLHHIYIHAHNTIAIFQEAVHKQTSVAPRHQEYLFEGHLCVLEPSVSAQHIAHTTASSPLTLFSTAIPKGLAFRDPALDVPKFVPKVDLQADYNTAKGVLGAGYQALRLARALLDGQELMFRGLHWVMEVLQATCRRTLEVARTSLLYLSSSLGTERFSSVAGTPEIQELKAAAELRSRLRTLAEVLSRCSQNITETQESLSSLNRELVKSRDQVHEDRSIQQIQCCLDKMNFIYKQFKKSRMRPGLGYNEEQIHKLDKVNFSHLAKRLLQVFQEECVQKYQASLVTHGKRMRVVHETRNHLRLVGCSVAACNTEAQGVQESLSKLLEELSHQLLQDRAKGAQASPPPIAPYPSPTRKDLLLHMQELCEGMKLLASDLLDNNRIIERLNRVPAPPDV

[3] = molecular target: T3, Tyrosine-protein kinase Mer (Homo sapiens) (UniProt Q12866); conditions: at 10 µM
T3 sequence (whole entry): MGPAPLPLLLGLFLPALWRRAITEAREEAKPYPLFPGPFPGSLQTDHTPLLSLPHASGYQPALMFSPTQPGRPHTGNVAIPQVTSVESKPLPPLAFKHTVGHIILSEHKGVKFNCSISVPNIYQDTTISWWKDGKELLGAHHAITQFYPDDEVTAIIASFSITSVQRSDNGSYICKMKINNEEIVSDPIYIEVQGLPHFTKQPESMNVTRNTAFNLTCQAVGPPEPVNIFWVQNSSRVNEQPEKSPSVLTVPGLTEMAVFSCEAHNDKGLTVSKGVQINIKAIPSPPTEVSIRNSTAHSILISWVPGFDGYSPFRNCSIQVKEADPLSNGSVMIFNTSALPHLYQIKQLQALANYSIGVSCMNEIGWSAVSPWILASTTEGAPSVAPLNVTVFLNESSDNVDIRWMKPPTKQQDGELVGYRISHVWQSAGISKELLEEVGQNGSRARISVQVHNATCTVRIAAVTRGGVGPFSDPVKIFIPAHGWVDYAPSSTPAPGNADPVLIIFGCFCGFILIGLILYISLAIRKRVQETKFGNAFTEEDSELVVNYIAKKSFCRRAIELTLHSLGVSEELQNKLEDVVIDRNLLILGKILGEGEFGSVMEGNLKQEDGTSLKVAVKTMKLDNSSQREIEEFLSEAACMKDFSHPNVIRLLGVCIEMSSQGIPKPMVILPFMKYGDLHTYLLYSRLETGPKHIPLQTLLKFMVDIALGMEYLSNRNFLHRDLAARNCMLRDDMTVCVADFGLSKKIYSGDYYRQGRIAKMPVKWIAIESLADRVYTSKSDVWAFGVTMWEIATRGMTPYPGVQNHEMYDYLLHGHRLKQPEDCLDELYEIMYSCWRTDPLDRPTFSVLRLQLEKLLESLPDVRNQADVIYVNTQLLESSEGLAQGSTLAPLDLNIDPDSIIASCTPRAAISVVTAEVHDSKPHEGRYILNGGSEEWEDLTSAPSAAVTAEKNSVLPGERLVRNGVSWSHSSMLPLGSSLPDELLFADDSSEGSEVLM

SMILES | inhibition [1] | inhibition [2] | inhibition [3]
OCCCNc1nccc(-c2c(-c3ccc(F)cc3)nn3cc(C(F)(F)F)ccc23)n1 | -2% and -5% | -3% and 0% | 57%
c1ccc(Oc2ccc(Nc3ncc(-c4ccccc4)o3)cc2)cc1 | -5% and -4% | -2% and -1% | 27%
CCn1c(-c2nonc2N)nc2cncc(C(=O)N3CC[C@H](N)C3)c21 | 32% and 36% | 54% and 53% | 6%
O=C(Nc1n[nH]c2cc(-c3ccc(F)cc3)ccc12)C1CC1 | 2% and 4% | 2% and -1% | 86%
Cc1cc(-c2ccco2)cc(C)c1/C=C/c1cncc(-c2nn[nH]n2)c1 | 5% and 3% | 9% and 11% | 86%
CN(C)CCNC(=O)Nc1ccc(N(C)c2ccnc(Nc3ccc(CS(C)(=O)=O)cc3)n2)cc1 | -2% and -4% | 1% | 1%
CCn1c(-c2nonc2N)nc2ccccc21 | -2% and -3% | -1% and -2% | 59%
CCn1c(-c2nonc2N)nc2c(C#CC(C)(C)O)ncc(OC3CCNCC3)c21 | 55% and 57% | 95% and 96% | -5%

The remaining lines, values ahead:

inhibition [1] | inhibition [2] | inhibition [3] | SMILES
3% and 0% | -1% | 1% | CC(=O)Nc1cccc(C#Cc2cncnc2Nc2ccc(OCc3cccc(F)c3)c(Cl)c2)n1
74% and 76% | 35% and 33% | 85% | COc1cccc(-c2c[nH]c3c(N/N=C/c4ccncc4)ncnc23)c1
14% and 16% | -1% and 0% | 0% | NCc1ccc(-c2nc(-c3ccc(Cl)c(O)c3)c(-c3ccncc3)[nH]2)cc1
11% and 12% | 1% and 4% | 66% | CS(=O)(=O)CCN(CC#N)Cc1ccc(-c2ccc3ncnc(Nc4ccc(OCc5cccc(F)c5)c(Cl)c4)c3c2)o1
-1% and -3% | 0% and 1% | 0% | COc1cc(N2CCN(C(C)C)CC2)ccc1Nc1nc(Nc2ccc(F)cc2C(=O)NC[C@@H](O)CO)c2cc[nH]c2n1
7% and 3% | 6% and 5% | -4% | CN1CCN(Cc2ccc(-c3cc4ncnc(Nc5ccc(OCc6cccc(F)c6)c(Cl)c5)c4s3)o2)CC1
